In the kinase profiling compilation of Christmann-Franck et al. (2016):

Assays:
Assay in all cases: radiometric filter-binding kinase assay
ROCK2 (rat) = details: accession and sequence are those of the human protein
DYRK1A (human) = DYRK1A (human) (UniProt Q13627)
STK3 (human) = STK3 (human) (UniProt Q13188)
MAPKAPK5 (human) = MAPKAPK5 (human) (UniProt Q8IW41)
MAPK11 (human) = MAPK11 (human) (UniProt Q15759)
SRPK1 (human) = SRPK1 (human) (UniProt Q96SB4)
TAOK1 (human) = TAOK1 (human) (UniProt Q7L7X3)
IGF1R (human) = IGF1R (human) (UniProt P08069)
LCK (mouse) = details: accession and sequence are those of the human protein
CSNK2A1 (human) = CSNK2A1 (human) (UniProt P68400)
[1] = tested on: SGK1 (human), O00141 [S422D]
FGFR1 (human) = FGFR1 (human) (UniProt P11362)
EPHB2 (human) = EPHB2 (human) (UniProt P29323)
MARK3 (human) = MARK3 (human) (UniProt P27448)
TBK1 (human) = TBK1 (human) (UniProt Q9UHD2)
HIPK1 (human) = HIPK1 (human) (UniProt Q86Z02)
CaMK1 (human) = CaMK1 (human) (UniProt Q14012)
MAPK8 (human) = MAPK8 (human) (UniProt P45983)
JAK2 JH1 JH2 (human) = JAK2 JH1 JH2 (human) (UniProt O60674)
PIM3 (human) = PIM3 (human) (UniProt Q86V86)
MINK1 (human) = MINK1 (human) (UniProt Q8N4C8)
AURKB (human) = AURKB (human) (UniProt Q96GD4)
YES1 (human) = YES1 (human) (UniProt P07947)
PHKG1 (human) = PHKG1 (human) (UniProt Q16816)
CLK2 (human) = CLK2 (human) (UniProt P49760)
DYRK3 (human) = DYRK3 (human) (UniProt O43781)
BRSK2 (human) = BRSK2 (human) (UniProt Q8IWQ3)
GCK (human) = GCK (human) (UniProt Q12851)
DAPK1 (human) = DAPK1 (human) (UniProt P53355)
MAPK13 (human) = MAPK13 (human) (UniProt O15264)
HIPK2 (human) = HIPK2 (human) (UniProt Q9H2X6)
[2] = tested on: PAK2 (human), Q13177 [T402E]
CHEK1 (human) = CHEK1 (human) (UniProt O14757)
MKNK1 (human) = MKNK1 (human) (UniProt Q9BUB5)
MAPK10 (human) = MAPK10 (human) (UniProt P53779)
CAMKK2 (human) = CAMKK2 (human) (UniProt Q96RR4)

Chain of CaMK1 (human) (Q14012 whole entry, looked up): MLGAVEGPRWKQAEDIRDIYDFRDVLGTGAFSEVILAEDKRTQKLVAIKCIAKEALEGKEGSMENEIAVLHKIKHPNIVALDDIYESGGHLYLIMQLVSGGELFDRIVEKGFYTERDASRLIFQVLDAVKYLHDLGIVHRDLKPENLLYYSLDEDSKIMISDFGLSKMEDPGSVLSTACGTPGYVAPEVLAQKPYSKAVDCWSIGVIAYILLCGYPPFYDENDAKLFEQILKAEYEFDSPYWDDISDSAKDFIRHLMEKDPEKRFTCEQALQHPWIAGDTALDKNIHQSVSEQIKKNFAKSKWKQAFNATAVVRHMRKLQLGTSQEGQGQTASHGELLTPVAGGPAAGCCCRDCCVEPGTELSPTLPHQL
Chain of TBK1 (human) (Q9UHD2 whole entry, looked up): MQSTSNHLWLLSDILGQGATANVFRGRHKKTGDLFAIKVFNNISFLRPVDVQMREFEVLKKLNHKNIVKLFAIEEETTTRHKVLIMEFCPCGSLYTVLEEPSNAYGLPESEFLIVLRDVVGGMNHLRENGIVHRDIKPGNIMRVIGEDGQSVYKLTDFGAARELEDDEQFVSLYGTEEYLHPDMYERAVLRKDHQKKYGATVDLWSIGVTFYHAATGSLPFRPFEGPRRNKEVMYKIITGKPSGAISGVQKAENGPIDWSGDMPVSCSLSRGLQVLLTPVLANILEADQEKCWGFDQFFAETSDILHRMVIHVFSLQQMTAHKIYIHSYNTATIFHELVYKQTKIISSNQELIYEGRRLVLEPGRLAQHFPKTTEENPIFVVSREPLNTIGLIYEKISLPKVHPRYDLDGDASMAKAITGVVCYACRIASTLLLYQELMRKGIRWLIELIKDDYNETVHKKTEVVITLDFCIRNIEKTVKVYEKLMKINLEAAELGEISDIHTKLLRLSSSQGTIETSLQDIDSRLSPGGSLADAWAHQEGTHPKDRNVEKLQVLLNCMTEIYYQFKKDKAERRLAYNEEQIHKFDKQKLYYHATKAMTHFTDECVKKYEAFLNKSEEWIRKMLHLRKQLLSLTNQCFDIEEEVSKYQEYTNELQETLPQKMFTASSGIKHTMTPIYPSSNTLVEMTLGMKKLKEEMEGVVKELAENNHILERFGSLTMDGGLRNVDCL
Chain of BRSK2 (human) (Q8IWQ3 whole entry, looked up): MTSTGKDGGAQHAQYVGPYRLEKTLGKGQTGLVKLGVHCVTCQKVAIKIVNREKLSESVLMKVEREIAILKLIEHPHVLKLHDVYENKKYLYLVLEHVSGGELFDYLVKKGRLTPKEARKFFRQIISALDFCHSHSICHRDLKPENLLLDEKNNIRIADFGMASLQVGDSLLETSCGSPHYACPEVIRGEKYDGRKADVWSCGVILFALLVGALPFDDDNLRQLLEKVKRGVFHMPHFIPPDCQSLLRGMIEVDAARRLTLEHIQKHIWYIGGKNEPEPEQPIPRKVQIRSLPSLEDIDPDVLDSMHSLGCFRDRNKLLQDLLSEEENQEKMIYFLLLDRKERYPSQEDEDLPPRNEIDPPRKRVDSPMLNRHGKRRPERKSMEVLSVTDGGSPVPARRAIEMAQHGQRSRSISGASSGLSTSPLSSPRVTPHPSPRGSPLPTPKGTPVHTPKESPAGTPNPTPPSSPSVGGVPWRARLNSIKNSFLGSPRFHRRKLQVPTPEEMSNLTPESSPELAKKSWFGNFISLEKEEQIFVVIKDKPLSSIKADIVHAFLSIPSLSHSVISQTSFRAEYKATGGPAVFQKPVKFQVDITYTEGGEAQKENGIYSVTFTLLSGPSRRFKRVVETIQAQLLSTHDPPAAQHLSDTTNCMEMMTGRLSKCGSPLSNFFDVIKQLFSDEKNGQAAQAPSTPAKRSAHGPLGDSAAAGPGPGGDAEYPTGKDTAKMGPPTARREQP
Chain of MAPK10 (human) (P53779 whole entry, looked up): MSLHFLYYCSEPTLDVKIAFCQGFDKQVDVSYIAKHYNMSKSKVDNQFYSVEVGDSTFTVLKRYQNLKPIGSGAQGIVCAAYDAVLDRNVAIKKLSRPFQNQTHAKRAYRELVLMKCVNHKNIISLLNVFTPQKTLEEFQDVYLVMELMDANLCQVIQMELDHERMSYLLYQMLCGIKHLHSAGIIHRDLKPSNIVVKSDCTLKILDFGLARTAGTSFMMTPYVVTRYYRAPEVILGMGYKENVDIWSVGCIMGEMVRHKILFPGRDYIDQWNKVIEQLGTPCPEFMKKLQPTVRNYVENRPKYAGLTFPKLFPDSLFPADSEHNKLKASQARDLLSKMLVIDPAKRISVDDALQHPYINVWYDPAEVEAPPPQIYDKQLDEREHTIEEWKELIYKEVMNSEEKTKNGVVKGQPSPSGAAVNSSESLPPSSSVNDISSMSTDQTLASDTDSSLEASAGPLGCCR
Chain of MAPK8 (human) (P45983 whole entry, looked up): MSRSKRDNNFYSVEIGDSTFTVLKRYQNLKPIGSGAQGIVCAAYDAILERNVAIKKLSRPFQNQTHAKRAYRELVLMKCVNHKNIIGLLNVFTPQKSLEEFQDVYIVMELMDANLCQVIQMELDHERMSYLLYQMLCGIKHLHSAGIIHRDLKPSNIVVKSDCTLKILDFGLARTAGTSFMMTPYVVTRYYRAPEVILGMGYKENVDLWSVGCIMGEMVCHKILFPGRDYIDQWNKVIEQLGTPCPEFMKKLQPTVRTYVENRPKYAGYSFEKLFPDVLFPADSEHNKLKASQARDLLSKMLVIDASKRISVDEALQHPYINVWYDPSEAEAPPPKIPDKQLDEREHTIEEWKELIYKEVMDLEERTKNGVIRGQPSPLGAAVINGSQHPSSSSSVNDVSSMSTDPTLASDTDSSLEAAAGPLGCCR
Chain of MAPK11 (human) (Q15759 whole entry, looked up): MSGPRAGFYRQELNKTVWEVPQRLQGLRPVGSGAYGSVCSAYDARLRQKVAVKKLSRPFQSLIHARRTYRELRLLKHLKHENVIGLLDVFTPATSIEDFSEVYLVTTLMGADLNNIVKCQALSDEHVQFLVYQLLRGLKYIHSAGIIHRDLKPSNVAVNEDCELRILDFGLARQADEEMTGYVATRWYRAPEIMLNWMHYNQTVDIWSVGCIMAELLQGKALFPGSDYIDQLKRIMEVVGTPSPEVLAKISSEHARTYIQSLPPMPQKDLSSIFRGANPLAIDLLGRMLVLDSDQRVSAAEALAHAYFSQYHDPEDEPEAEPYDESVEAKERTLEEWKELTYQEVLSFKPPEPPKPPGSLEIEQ
Chain of HIPK2 (human) (Q9H2X6 whole entry, looked up): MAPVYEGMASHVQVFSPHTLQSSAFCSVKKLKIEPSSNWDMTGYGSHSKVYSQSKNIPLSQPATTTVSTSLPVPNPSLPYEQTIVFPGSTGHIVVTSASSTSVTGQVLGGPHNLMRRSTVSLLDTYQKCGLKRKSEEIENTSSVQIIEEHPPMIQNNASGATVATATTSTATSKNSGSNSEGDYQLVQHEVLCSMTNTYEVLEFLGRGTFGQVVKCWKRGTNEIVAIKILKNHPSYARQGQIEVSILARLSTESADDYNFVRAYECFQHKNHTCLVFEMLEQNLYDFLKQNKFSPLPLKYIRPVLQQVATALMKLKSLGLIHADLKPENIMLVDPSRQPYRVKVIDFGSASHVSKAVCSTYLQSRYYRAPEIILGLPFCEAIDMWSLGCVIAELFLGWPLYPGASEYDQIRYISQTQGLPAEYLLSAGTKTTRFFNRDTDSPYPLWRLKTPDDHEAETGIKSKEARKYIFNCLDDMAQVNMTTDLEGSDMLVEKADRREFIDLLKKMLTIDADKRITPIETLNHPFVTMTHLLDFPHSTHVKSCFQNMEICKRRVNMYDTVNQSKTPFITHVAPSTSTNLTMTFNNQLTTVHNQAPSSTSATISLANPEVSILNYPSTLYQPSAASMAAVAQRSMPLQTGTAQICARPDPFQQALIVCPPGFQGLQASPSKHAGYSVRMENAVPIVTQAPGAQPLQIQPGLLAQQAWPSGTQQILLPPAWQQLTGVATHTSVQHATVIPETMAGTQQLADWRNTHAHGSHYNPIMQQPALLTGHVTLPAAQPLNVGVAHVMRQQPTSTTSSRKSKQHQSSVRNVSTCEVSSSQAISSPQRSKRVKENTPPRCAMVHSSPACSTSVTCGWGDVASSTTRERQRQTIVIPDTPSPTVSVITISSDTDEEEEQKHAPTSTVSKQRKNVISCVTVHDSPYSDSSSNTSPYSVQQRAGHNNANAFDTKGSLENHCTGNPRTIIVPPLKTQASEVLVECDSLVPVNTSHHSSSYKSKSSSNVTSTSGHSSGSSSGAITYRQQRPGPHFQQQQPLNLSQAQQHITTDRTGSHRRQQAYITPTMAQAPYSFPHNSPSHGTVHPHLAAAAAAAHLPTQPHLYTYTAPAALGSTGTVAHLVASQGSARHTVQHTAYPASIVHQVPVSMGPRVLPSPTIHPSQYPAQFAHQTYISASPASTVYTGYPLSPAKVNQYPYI
Chain of MAPK13 (human) (O15264 whole entry, looked up): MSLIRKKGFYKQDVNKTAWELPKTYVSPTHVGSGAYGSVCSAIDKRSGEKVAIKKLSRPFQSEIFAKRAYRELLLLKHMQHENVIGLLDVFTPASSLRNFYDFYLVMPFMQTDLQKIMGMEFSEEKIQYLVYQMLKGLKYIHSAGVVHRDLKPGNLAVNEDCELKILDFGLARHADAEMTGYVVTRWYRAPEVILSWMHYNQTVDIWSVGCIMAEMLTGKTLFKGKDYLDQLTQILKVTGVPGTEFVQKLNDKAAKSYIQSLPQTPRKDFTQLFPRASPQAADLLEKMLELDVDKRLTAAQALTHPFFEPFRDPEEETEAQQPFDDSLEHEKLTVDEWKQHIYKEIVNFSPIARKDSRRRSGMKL

## N#Cc1c(O)c2c(-c3ccc(-c4ccccc4O)cc3)csc2[nH]c1=O
ROCK2 (rat); compound 10.0 µM
  residual activity: 91%
ROCK2 (rat); compound 50.0 µM
  residual activity: 49%
ROCK2 (rat); compound 100.0 µM
  residual activity: 75%
DYRK1A (human); compound 10.0 µM
  residual activity: 75%
DYRK1A (human); compound 50.0 µM
  residual activity: 60%
DYRK1A (human); compound 100.0 µM
  residual activity: 26%
STK3 (human); compound 10.0 µM
  residual activity: 60%
STK3 (human); compound 50.0 µM
  residual activity: 36%
STK3 (human); compound 100.0 µM
  residual activity: 20%
MAPKAPK5 (human); compound 10.0 µM
  residual activity: 52%
MAPKAPK5 (human); compound 50.0 µM
  residual activity: 25%
MAPKAPK5 (human); compound 100.0 µM
  residual activity: 15%
MAPK11 (human); compound 10.0 µM
  residual activity: 89%
MAPK11 (human); compound 50.0 µM
  residual activity: 84%
MAPK11 (human); compound 100.0 µM
  residual activity: 77%
SRPK1 (human); compound 10.0 µM
  residual activity: 107%
SRPK1 (human); compound 50.0 µM
  residual activity: 42%
SRPK1 (human); compound 100.0 µM
  residual activity: 35%
TAOK1 (human); compound 10.0 µM
  residual activity: 83%
TAOK1 (human); compound 100.0 µM
  residual activity: 18%
IGF1R (human); compound 10.0 µM
  residual activity: 94%
IGF1R (human); compound 100.0 µM
  residual activity: 65%
LCK (mouse); compound 10.0 µM
  residual activity: 88%
LCK (mouse); compound 50.0 µM
  residual activity: 58%
LCK (mouse); compound 100.0 µM
  residual activity: 58%
CSNK2A1 (human); compound 10.0 µM
  residual activity: 110%
CSNK2A1 (human); compound 50.0 µM
  residual activity: 95%
CSNK2A1 (human); compound 100.0 µM
  residual activity: 86%
[1]; compound 10.0 µM
  residual activity: 103%
[1]; compound 50.0 µM
  residual activity: 54%
[1]; compound 100.0 µM
  residual activity: 48%
FGFR1 (human); compound 10.0 µM
  residual activity: 109%
FGFR1 (human); compound 50.0 µM
  residual activity: 95%
FGFR1 (human); compound 100.0 µM
  residual activity: 50%
EPHB2 (human); compound 10.0 µM
  residual activity: 93%
EPHB2 (human); compound 100.0 µM
  residual activity: 13%
MARK3 (human); compound 10.0 µM
  residual activity: 78%
MARK3 (human); compound 50.0 µM
  residual activity: 87%
MARK3 (human); compound 100.0 µM
  residual activity: 38%
TBK1 (human); compound 10.0 µM
  residual activity: 67%
TBK1 (human); compound 50.0 µM
  residual activity: 55%
TBK1 (human); compound 100.0 µM
  residual activity: 29%
HIPK1 (human); compound 10.0 µM
  residual activity: 74%
HIPK1 (human); compound 100.0 µM
  residual activity: 35%
CaMK1 (human); compound 10.0 µM
  residual activity: 68%
CaMK1 (human); compound 50.0 µM
  residual activity: 45%
CaMK1 (human); compound 100.0 µM
  residual activity: 7%
MAPK8 (human); compound 10.0 µM
  residual activity: 99%
MAPK8 (human); compound 50.0 µM
  residual activity: 102%
MAPK8 (human); compound 100.0 µM
  residual activity: 93%
JAK2 JH1 JH2 (human); compound 10.0 µM
  residual activity: 83%
JAK2 JH1 JH2 (human); compound 100.0 µM
  residual activity: 32%
PIM3 (human); compound 10.0 µM
  residual activity: 18%
PIM3 (human); compound 50.0 µM
  residual activity: 5%
PIM3 (human); compound 100.0 µM
  residual activity: 7%
MINK1 (human); compound 10.0 µM
  residual activity: 65%
MINK1 (human); compound 100.0 µM
  residual activity: 5%
AURKB (human); compound 10.0 µM
  residual activity: 53%
AURKB (human); compound 50.0 µM
  residual activity: 25%
AURKB (human); compound 100.0 µM
  residual activity: 22%
YES1 (human); compound 10.0 µM
  residual activity: 96%
YES1 (human); compound 50.0 µM
  residual activity: 13%
YES1 (human); compound 100.0 µM
  residual activity: 16%
PHKG1 (human); compound 10.0 µM
  residual activity: 96%
PHKG1 (human); compound 50.0 µM
  residual activity: 65%
PHKG1 (human); compound 100.0 µM
  residual activity: 73%
CLK2 (human); compound 10.0 µM
  residual activity: 81%
CLK2 (human); compound 100.0 µM
  residual activity: 30%
DYRK3 (human); compound 10.0 µM
  residual activity: 54%
DYRK3 (human); compound 50.0 µM
  residual activity: 47%
DYRK3 (human); compound 100.0 µM
  residual activity: 6%
BRSK2 (human); compound 10.0 µM
  residual activity: 64%
BRSK2 (human); compound 50.0 µM
  residual activity: 63%
BRSK2 (human); compound 100.0 µM
  residual activity: 28%
GCK (human); compound 10.0 µM
  residual activity: 76%
GCK (human); compound 100.0 µM
  residual activity: 14%
DAPK1 (human); compound 10.0 µM
  residual activity: 107%
DAPK1 (human); compound 100.0 µM
  residual activity: 83%
MAPK13 (human); compound 10.0 µM
  residual activity: 107%
MAPK13 (human); compound 50.0 µM
  residual activity: 116%
MAPK13 (human); compound 100.0 µM
  residual activity: 124%
HIPK2 (human); compound 10.0 µM
  residual activity: 99%
HIPK2 (human); compound 50.0 µM
  residual activity: 58%
HIPK2 (human); compound 100.0 µM
  residual activity: 19%
[2]; compound 10.0 µM
  residual activity: 94%
[2]; compound 100.0 µM
  residual activity: 63%
CHEK1 (human); compound 10.0 µM
  residual activity: 69%
CHEK1 (human); compound 50.0 µM
  residual activity: 98%
CHEK1 (human); compound 100.0 µM
  residual activity: 43%
MKNK1 (human); compound 10.0 µM
  residual activity: 104%
MKNK1 (human); compound 50.0 µM
  residual activity: 66%
MKNK1 (human); compound 100.0 µM
  residual activity: 93%
MAPK10 (human); compound 10.0 µM
  residual activity: 75%
MAPK10 (human); compound 50.0 µM
  residual activity: 70%
MAPK10 (human); compound 100.0 µM
  residual activity: 62%
CAMKK2 (human); compound 10.0 µM
  residual activity: 87%
CAMKK2 (human); compound 50.0 µM
  residual activity: 48%
CAMKK2 (human); compound 100.0 µM
  residual activity: 78%
